The assay deals with Serine/threonine-protein kinase 33 (Homo sapiens, UniProt Q9BYT3). As to the kind of experiment: inhibition of STK33 phosphorylation of MBP – biochemical, luminescence, cell-free, retest, dose response (AID 2821).
Serine/threonine-protein kinase 33, sequence (Q9BYT3 whole entry): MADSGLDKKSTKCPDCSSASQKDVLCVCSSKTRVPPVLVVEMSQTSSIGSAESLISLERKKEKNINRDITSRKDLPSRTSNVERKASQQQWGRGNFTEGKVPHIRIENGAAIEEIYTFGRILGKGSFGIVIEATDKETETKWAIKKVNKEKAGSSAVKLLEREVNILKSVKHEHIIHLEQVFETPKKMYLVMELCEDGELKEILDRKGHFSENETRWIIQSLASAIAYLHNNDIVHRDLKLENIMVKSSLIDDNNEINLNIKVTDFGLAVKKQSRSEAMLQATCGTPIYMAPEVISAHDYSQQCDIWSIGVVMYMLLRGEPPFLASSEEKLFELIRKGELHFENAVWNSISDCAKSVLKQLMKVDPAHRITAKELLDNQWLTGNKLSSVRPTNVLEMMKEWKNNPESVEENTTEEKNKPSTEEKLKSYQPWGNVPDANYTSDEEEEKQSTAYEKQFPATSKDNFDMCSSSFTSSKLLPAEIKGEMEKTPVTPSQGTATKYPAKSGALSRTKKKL
Regarding `Cn1c(/N=N/c2ccccc2)nc2ccccc21` [(1-methyl-2-benzimidazolyl)-phenyldiazene], the EC50 was > 120 µM. To `O=C(NCCCO)c1cc2c([nH]c3ccccc32)c(-c2ccccc2)n1` [MLS001214182] belongs 23.4 µM; to `C/C=C/Cn1c(SCc2ccc(Cl)cc2)nc2c1c(=O)[nH]c(=O)n2C` [7-[(E)-but-2-enyl]-8-[(4-chlorophenyl)methylsulfanyl]-3-methylpurine-2,6-dione], > 120 µM; to `O=C1/C(=C/c2ccc(O)c(O)c2)Oc2cc(O)ccc21` [MLS000863576], 9.63 µM. The value for `CCOc1ccc(-c2cc(CCCC(=O)NCCCOC)no2)cc1` [4-[5-(4-ethoxyphenyl)-1,2-oxazol-3-yl]-N-(3-methoxypropyl)butanamide] was > 120 µM; that for `c1ccc(Nc2ccnc(Nc3ccccc3)n2)cc1` [N*2*,N*4*-Diphenyl-pyrimidine-2,4-diamine] was 14.9 µM. To `COC(=O)c1ccc(COc2ccccc2/C=C/C(=O)c2ccc(OCC(=O)O)cc2)cc1` [SMR000590970] belongs 1.86 µM; to `NS(=O)(=O)c1ccc2c(c1)C(N=O)c1cc(S(N)(=O)=O)ccc1-2`, 4.91 µM. `COc1ccc(-c2nc(-c3ccccn3)no2)cc1` [5-(4-methoxyphenyl)-3-(2-pyridinyl)-1,2,4-oxadiazole]: the EC50 is > 120 µM. To `O=C(O)c1cccc(Nc2nc(-c3cccnc3)nc3ccccc23)c1` [SMR000172180] belongs 32.5 µM; to `Oc1ccc(C=Nn2c(-c3ccccc3)n[nH]c2=S)cc1` [SMR000513437], 25.8 µM; to `CN1CCCC1CCNc1ccc2oc3ccccc3c(=O)c2c1` (stereo unspecified) [MLS001249997], > 120 µM. Turning to `CCCN1C=CC(=C2C(=O)c3ccccc3C2=O)C=C1` [2-(1-propyl-4-pyridinylidene)indene-1,3-dione], a half-maximal effect (EC50) was put at 8.93 µM. That is a single-digit micromolar value.

As to `CC(C)(C)c1[nH]nc2c1C(=O)c1ccccc1-2` [SMR000528110], the EC50 was determined as 25 µM. Against the preceding compound, the EC50 is about 2.8-fold higher. The value for `Cc1ccc(-c2nn(CCC(=O)O)cc2/C=C\C(=O)c2ccc(Br)cc2)cc1` [3-[4-[(Z)-3-(4-bromophenyl)-3-oxoprop-1-enyl]-3-(4-methylphenyl)pyrazol-1-yl]propanoic acid] was 19.3 µM; that for `COc1cc(C=C2SC(Nc3ccc(Cl)c(C(=O)O)c3)=NC2=O)c(Br)c(Br)c1O` [2-Chloro-5-[5-(2,3-dibromo-4-hydroxy-5-methoxy-benzylidene)-4-oxo-thiazolidin-2-ylideneamino]-benzoic acid] was 15.9 µM. The value for `COc1ccc(O)c(-c2nc(N)nc(N)n2)c1` [(6Z)-6-[4,6-bis(azanyl)-1H-1,3,5-triazin-2-ylidene]-4-methoxy-cyclohexa-2,4-dien-1-one] was 8.14 µM; that for `CCN1C(=O)CC(c2ccccc2)N(C2CCCC2)c2nc(Nc3ccc(C(=O)NC4CCN(C)CC4)cc3OC)ncc21` (stereo unspecified) was 7.93 µM.

On to `CCCn1c2ccc(C(C)N=O)cc2c2cc(C(C)N=O)ccc21` (stereo unspecified) [1-[6-(1-hydroxyiminoethyl)-9-propyl-3-carbazolyl]ethanone oxime], for which the EC50 turned out to be 2.48 µM. To `Cc1nn(C)cc1/C=C/C(=O)c1ccc(O)cc1` belongs 29 µM; to `O=C(O)Cc1ccc(N=Cc2c(O)ccc3ccccc23)cc1` [(4-{[(2-hydroxy-1-naphthyl)methylene]amino}phenyl)acetic acid], 10.7 µM.

`O=C(O)c1ccc(N=Cc2c(O)ccc3oc4c(c23)CCCC4)cc1` [4-{[1-(2-Hydroxy-6,7,8,9-tetrahydro-dibenzofuran-1-yl)-meth-(E)-ylidene]-amino}-benzoic acid] came in with a 50% effective concentration (EC50) of 6.2 µM. To `COc1cc(C=Nn2c(-c3cc(C)[nH]n3)n[nH]c2=S)ccc1O` [MLS000778764] belongs 27.6 µM; to `CCn1c(C)nc2cc(-c3nc4n(n3)Cc3ccccc3-4)ccc21` [2-(1-ethyl-2-methyl-5-benzimidazolyl)-5H-[1,2,4]triazolo[5,1-a]isoindole], 11 µM.

In the case of `CCNc1nc(N)nc(-c2cc(Cl)ccc2O)n1` [(6E)-6-[6-amino-4-(ethylamino)-1H-1,3,5-triazin-2-ylidene]-4-chloro-1-cyclohexa-2,4-dienone], the EC50 came to 5.04 µM. Against the preceding compound, the EC50 is about 2.2-fold lower. To `COC(=O)c1cccc2c1-c1ccccc1C2N=O` (stereo unspecified) [(9Z)-9-hydroximinofluorene-4-carboxylic acid methyl ester] belongs 11.8 µM; to `Oc1ccc(CN=Nc2ccc(C(F)(F)F)cn2)cc1` [4-[[2-[5-(trifluoromethyl)pyridin-2-yl]hydrazinyl]methylidene]cyclohexa-2,5-dien-1-one], 14.1 µM.

For `CS(=O)(=O)Nc1ccc(-c2cc(C=C3SC(N)=NC3=O)c[nH]c2=O)cc1` [N-[4-[5-[(Z)-(2-azanyl-4-oxidanylidene-1,3-thiazol-5-ylidene)methyl]-2-oxidanylidene-1H-pyridin-3-yl]phenyl]methanesulfonamide], a half-maximal response (EC50) required 8.09 µM. The value for `CC[C@H](CO)Nc1nc(Nc2cccc(Cl)c2)c2ncn(C(C)C)c2n1` [(R)-2-(6-(3-chlorophenylamino)-9-isopropyl-9H-purin-2-ylamino)butan-1-ol] was 2.49 µM; that for `CCNC(=S)Nc1ccc2cn[nH]c2c1` [SMR000261305] was 49.7 µM; that for `OCCN1CCN(c2nc(-c3ccccc3O)nc3ccccc23)CC1` [MLS001165184] was 23.1 µM. In the case of `CN(C)/C=C/C(=O)c1ccc2noc(-c3ccccc3)c2c1` [SMR000549693], the response was half-maximal at 15.9 µM (EC50). To `c1coc(C2Nc3ccccc3-c3nc4ccccc4n32)c1` (stereo unspecified) [MLS000055458] belongs 30.8 µM.

In the case of `CCCCC(CC)CNC(=N)NC(=N)NCCCCCCNC(=N)NC(=N)NCC(CC)CCCC` (stereo unspecified) [MLS002153995], the EC50 was > 120 µM.

`O=c1c(O)c(-c2ccc(O)c(O)c2)oc2cc(O)cc(O)c12` [2-(3,4-dihydroxyphenyl)-3,5,7-trihydroxy-chromone;hydrate] registered an EC50 of 12.4 µM. The value for `Cc1cccc(-c2nc3ccccc3c3nncn23)c1` [SMR000106108] was 22.5 µM; that for `CCn1c(/C=C/c2ccc([N+](=O)[O-])o2)nc2ccccc2c1=O` [3-ethyl-2-[(E)-2-(5-nitro-2-furanyl)ethenyl]-4-quinazolinone] was > 120 µM; that for `Oc1ccc(CN=Nc2ccnc3cc(Cl)ccc23)cc1O` [(4Z)-4-[[2-(7-chloroquinolin-4-yl)hydrazinyl]methylidene]-2-hydroxycyclohexa-2,5-dien-1-one] was 3.05 µM. The value for `Cc1sc2ncnc(N=NCc3cccc(O)c3)c2c1C` [SMR000219295] was 17 µM; that for `Cc1ccc(NC(=O)COC(=O)c2cc(Cl)ccc2Cl)c(Br)c1` [SMR000259824] was > 120 µM. The value for `Nc1nc(-c2cc(O)ccc2[N+](=O)[O-])cc(-c2ccccc2)c1[N+](=O)[O-]` [SMR000504332] was < 0.1 µM; that for `Cc1cc(C=C2C(=O)c3ccccc3C2=O)c(C)n1-c1ccc(C(=O)O)cc1` [4-[3-[(1,3-dioxo-2-indenylidene)methyl]-2,5-dimethyl-1-pyrrolyl]benzoic acid] was 19.3 µM; that for `O=C(Nc1ccccc1C(=O)O)c1cccc(C(=O)Nc2ccccc2C(=O)O)c1` [The compound has not trivial name.] was 59.6 µM. With `CCOc1ccccc1C(=O)Nc1cc(Cl)ccc1O` [N-(5-chloranyl-2-oxidanyl-phenyl)-2-ethoxy-benzamide], the EC50 turned out to be 6.82 µM. To `CCC(C(=O)Nc1ccc2[nH]ncc2c1)c1ccccc1` (stereo unspecified) [MLS001001015] belongs 9.54 µM; to `Oc1ccccc1-c1nc(NCCN2CCOCC2)c2ccccc2n1` [(6E)-6-[4-(2-morpholin-4-ylethylamino)-1H-quinazolin-2-ylidene]cyclohexa-2,4-dien-1-one], 14.3 µM; to `CCCCCCCCCCCCCCCCn1cc[n+](C)c1` [1-cetyl-3-methyl-imidazol-3-ium;bromide], > 120 µM. The value for `S=C(Nc1cccnc1)Nc1cccc2cnccc12` [SMR000348842] was > 120 µM; that for `CCCCCCCCCCC[N+](C)(C)CC/C=C1/c2ccccc2Sc2ccc(Cl)cc21` [MLS001165405] was > 120 µM.

Take `S=C(NCc1ccccc1)Nc1ccc2cn[nH]c2c1` [1-(1H-indazol-6-yl)-3-(phenylmethyl)thiourea]: the EC50 was > 120 µM. `Fc1ccc(-c2c[nH]cn2)cc1` [4-(4-fluorophenyl)-1H-imidazole]: the EC50 is > 120 µM. Consider `COc1cc(C=Nn2c(S)nnc2-c2[nH]nc3c2CCC3)ccc1O` [(4E)-2-methoxy-4-[[[5-sulfanylidene-3-(1,4,5,6-tetrahydrocyclopenta[c]pyrazol-3-yl)-1H-1,2,4-triazol-4-yl]amino]methylidene]cyclohexa-2,5-dien-1-one], for which the EC50 was determined as 10.4 µM. This lies in the double-digit micromolar range. The value for `O=C(O)c1ccc(NC(=O)c2cccc(C(=O)Nc3ccc(C(=O)O)cc3)n2)cc1` [4-[[6-[(4-carboxyphenyl)carbamoyl]pyridin-2-yl]carbonylamino]benzoic acid] was 28.3 µM. The value for `c1nc(N2CCCC2)c2[nH]cnc2n1` [6-(1-pyrrolidinyl)-7H-purine] was 9.71 µM; that for `COc1ccc(C2=CC3=C(Br)C(=O)C(C)(O)C(=O)C3=CO2)cc1` (stereo unspecified) [5-bromanyl-3-(4-methoxyphenyl)-7-methyl-7-oxidanyl-isochromene-6,8-dione] was 86 µM; that for `COc1ccc(NC(=O)c2cc([N+](=O)[O-])ccc2O)cc1` was 18.6 µM. For the compound `CCCCCCCCCCCCCCCC[N+](C)(C)CCN(Cc1ccc(OC)cc1)c1ncccn1` [SMR001233380], the EC50 is 35.8 µM. To `N#C/C(=C\c1ccc(O)c(O)c1)C(=O)c1ccc(O)c(O)c1` [(2E)-3-(3,4-dihydroxyphenyl)-2-[(3,4-dihydroxyphenyl)carbonyl]prop-2-enenitrile] belongs 44.9 µM. To `CCOc1cc(C=C(C#N)c2n[nH]c(N)c2C#N)ccc1O` [MLS000523215] belongs 8.62 µM; to `c1cncc(C2Nc3ccccc3-c3nc4ccccc4n32)c1` (stereo unspecified) [MLS000098034], 27.1 µM. Turning to `Nc1nc(N)nc(-c2cc(O)ccc2O)n1` [(6E)-6-(4,6-diamino-1H-1,3,5-triazin-2-ylidene)-4-hydroxycyclohexa-2,4-dien-1-one], the response was half-maximal at 7.05 µM (EC50).

The values above are taken from BindingDB's records for doi:10.7270/Q2B27SRF (Broad Institute, 2010).
